This note sets out measurements from patent US20260130370A1, “PLANT ACTIVATOR” (IBIDEN CO., LTD., priority 2021, published 2026).

The subject of this test is potherb mustard (“Mizuna”, Brassica rapa var. laciniifolia). The experiment in a line: Evaluation of the Mizuna (potherb mustard) growth. The class given is in vivo. Conditions: 0.05 mg/L foliar spraying (300 L/10a) 9 and 12 days after sowing, harvested 21 days after sowing. Here is the method: Dilutions were prepared by adding distilled water to the above-obtained trihydroxyoctadecaenoic acid solution, ketol fatty acid solution, and culture broth containing fatty acid metabolites, so that the final concentration of each of trihydroxyoctadecaenoic acid, ketol fatty acids, and fatty acid metabolites was 0.05 mg/L, and the resulting dilutions gave treatment solutions. A 72-well cell tray was filled with culture soil (TAKII & CO., LTD, trade name “Tanemaki Baido”), and the forced sprouting seeds of potherb mustard were sown in. After budding, the potherb mustard seedlings were thinned out for two plants per cell. Light condition was set for 12 hours for light period/12 hours for dark period. Water was supplied by irrigating with an appropriate amount of tap water about once every four days. 9 and 12 days after sowing, the plants were treated with foliar spraying by spraying each of the treatment solutions (300 L/10a) to the above-ground part of plants using a sprayer. The negative control was not subjected for the spraying of the treatment solution (“no treatment area”).
21 days after sowing, the plants were harvested and the wet weight of the above-ground part of plants per plant and the leaf length were measured.

Regarding `CC/C=C\C/C=C\CC(=O)C(O)CCCCCCCC(=O)O` (centres unmarked) [ketol fatty acid, 9-hydroxy-10-oxo-12 (Z), 15 (Z)-octadecadienoic acid], under “average n=20, no treatment area 0.19 g/plant”, the “wet weight of the above-ground part” value was “little increase”. Further, for the setting “average n=20, no treatment area 8.1 cm”, the leaf length result is listed as “reduced”.
